Assay results from patent publication US20140315809A1, “CALCIMIMETICS AND METHODS FOR THEIR USE” (KAI PHARMACEUTICALS INC., priority 2011, published 2014).
Read-outs that look alike come from different tables or passages of the source.

Columns and labels:
[1] = Single-dose clinical study: pharmacokinetics, noncompartmental analysis; assay type: in vivo, human; settings: for clearance / AUC / Cmax / half-life / Vd: human; for Vd: read-out: Vss
Description: (§1) A clinical study was performed to assess the safety and tolerability of rising single doses of Ac-c(C)arrrar-NH2 (SEQ ID NO:3), administered by IV bolus to patients diagnosed with CKD-BMD and SHPT, and who were receiving hemodialysis. Data were generated to measure changes in patient serum intact PTH (iPTH) and serum calcium as well as bioavailability of the single dose of Ac-c(C)arrrar-NH2 (SEQ ID NO:3).
(§2) A double-blind, randomized, placebo-controlled, multicenter study in subjects receiving thrice-weekly hemodialysis (HD) was designed and carried out. The major inclusion criteria included hemodialysis for at least 3 months prior to the start of the study, a serum iPTH level greater than 300 pg/mL, a serum cCa (corrected calcium) level greater than or equal to 9.0 mg/dL and receiving of stable doses of active vitamin D or analogs, phosphate binders, and calcium supplements.
(§3) Cohorts 1, 2 and 3 were conducted with a two-period crossover design. Each cohort enrolled 4 subjects randomized 1:1 to Ac-c(C)arrrar-NH2 (SEQ ID NO:3) followed by placebo or placebo followed by Ac-c(C)arrrar-NH2 (SEQ ID NO:3). The dose levels of Ac-c(C)arrrar-NH2 (SEQ ID NO:3) for Cohorts 1-3 were 5, 10 and 20 mg. Cohort 4 enrolled 8 subjects who were randomized 1:1 to 40 mg Ac-c(C)arrrar-NH2 (SEQ ID NO:3) or placebo in a parallel group. Cohort 5 enrolled 8 subjects were randomized 1:1 to 60 mg Ac-c(C)arrrar-NH2 (SEQ ID NO:3) or placebo in a parallel group.
(§4) Ac-c(C)arrrar-NH2 (SEQ ID NO:3) or placebo was administered by IV bolus injection 2-4 hours following completion of HD.
Pharmacokinetic (PK) analysis was performed on samples obtained from the treated subjects to determine bioavailability of the administered Ac-c(C)arrrar-NH2 (SEQ ID NO:3). […] Clearance (CL) and volume of distribution as steady state (Vss) values appear to be dose-independent over the range evaluation. Total clearance of Ac-c(C)arrrar-NH2 (SEQ ID NO:3) was approximately about 2 L/h. Ac-c(C)arrrar-NH2 (SEQ ID NO:3) was readily cleared from the central compartment by hemodialysis.

[2] = tested on: patients diagnosed with CKD-BMD and SHPT receiving hemodialysis; test: Single-dose clinical study: adverse events; assay type: in vivo, human; settings: for Adverse Event: Anemia / Adverse Event: Congestive heart failure / Adverse Event: Decreased ionized calcium / Adverse Event: Gastro-esophageal reflux / Adverse Event: Injection site pruritis / Adverse Event: Paresthesias / Adverse Event: Pneumonia / Adverse Event: Toothache / Number of subjects with ≧1 AE: n (%) of subjects
Description: as §1, §2, §3, §4
Adverse events were captured through 7 days after study drug administration.
Adverse events experienced by each of the subjects was recorded for 7 days after administration of the Ac-c(C)arrrar-NH2 (SEQ ID NO:3) or placebo. A single serious adverse event occurred in one subject who had been treated with placebo in the 10 mg dose cohort. The subject discontinued form the study prior to receiving Ac-c(C)arrrar-NH2 (SEQ ID NO:3). There were no reports of nausea, vomiting or diarrhea.

[3] = tested on: patients diagnosed with CKD-BMD and SHPT receiving hemodialysis; test: Single-dose clinical study: corrected calcium; assay type: in vivo, human; settings: single IV bolus 5-60 mg
Description: as §1
as §2, with “supplements. […]” for “supplements.”
Serum iPTH levels were determined using the electrochemiluminescence immunoassay (ECLIA) on the Roche Elecsys® analyzer. Calcium levels were adjusted for albumin <4 g/dL with the following equation: cCa=[measured Ca in mg/dL]+[4-(albumin in g/dL)]×0.8
The effects of Ac-c(C)arrrar-NH2 (SEQ ID NO:3) administration on serum iPTH and corrected calcium levels was also determined in this study. […] Blood from each subject was then analyzed to determine levels of iPTH and corrected calcium. […]

[4] = tested on: 5/6 nephrectomy (Nx) rat model of renal insufficiency; test: PTH suppression in 5/6 Nx rats, daily dosing for 28 days; assay type: in vivo; settings: daily 28 days, Ac-c(C)arrrar-NH2 1 mg/kg IV, cinacalcet 10 mg/kg PO
Description: The therapeutic efficacy of Ac-c(C)arrrar-NH2 (SEQ ID NO:3) was assessed using the 5/6 nephrectomy (Nx) rat model of renal insufficiency. The 5/6 Nx male rats were obtained from Charles River Laboratories (Wilmington, Mass.). These rats have undergone surgical removal of one kidney and ⅔ of the other kidney and were fed a high-phosphate diet. All experimental procedures with animals were performed according to IACUC guidelines. Statistical analysis was performed using one-way ANOVA with Bonferroni post test. All p-values are nominal.
Tail vein blood samples were taken periodically for measurement of PTH. PTH was measured using the Immutopics BioActive Intact ELISA (Cat #60-2700; Immutopics, San Clemente, Calif.).

[5] = plasma, Cohort 1, 5 mg single IV bolus, hemodialysis subjects, geometric mean
[6] = plasma, Cohort 2, 10 mg single IV bolus, hemodialysis subjects, geometric mean
[7] = plasma, Cohort 3, 20 mg single IV bolus, hemodialysis subjects, geometric mean
[8] = plasma, Cohort 4, 40 mg single IV bolus, hemodialysis subjects, geometric mean
[9] = plasma, Cohort 5, 60 mg single IV bolus, hemodialysis subjects, geometric mean

CC(=O)N[C@H](CSSC[C@H](N)C(=O)O)C(=O)N[C@H](C)C(=O)N[C@H](CCCNC(=N)N)C(=O)N[C@H](CCCNC(=N)N)C(=O)N[C@H](CCCNC(=N)N)C(=O)N[C@H](C)C(=O)N[C@H](CCCNC(=N)N)C(N)=O [Ac-c(C)arrrar-NH2]
Clearance (CL) and volume of distribution (Vss) relative to dose ([1]; 5-60 mg single IV bolus): dose-independent
total plasma exposure (Cmax and AUCall) relative to dose ([1]; 5-60 mg single IV bolus): reasonably proportional to the administered dose
clearance ([1]; in vivo, intravenous, estimated, hemodialysis subjects, read-out: Hemodialysis clearance (converted)): ~550 mL/min
AUC [1, 5]: 1080 ng·h/mL
Cmax [1, 5]: 133 ng/mL
clearance ([1]; plasma, Cohort 1, 5 mg single IV bolus, hemodialysis subjects, geometric mean, read-out: CL (converted)): 28 mL/min
half-life ([1]; plasma, Cohort 1, 5 mg single IV bolus, hemodialysis subjects, geometric mean, read-out: T½ (converted)): 121 h
Vd [1, 5]: 278 L
AUC [1, 6]: 2770 ng·h/mL
Cmax [1, 6]: 257 ng/mL
clearance ([1]; plasma, Cohort 2, 10 mg single IV bolus, hemodialysis subjects, geometric mean, read-out: CL (converted)): 31.8 mL/min
half-life ([1]; plasma, Cohort 2, 10 mg single IV bolus, hemodialysis subjects, geometric mean, read-out: T½ (converted)): 81.7 h
Vd [1, 6]: 203 L
AUC [1, 7]: 4680 ng·h/mL
Cmax [1, 7]: 479 ng/mL
clearance ([1]; plasma, Cohort 3, 20 mg single IV bolus, hemodialysis subjects, geometric mean, read-out: CL (converted)): 20.2 mL/min
half-life ([1]; plasma, Cohort 3, 20 mg single IV bolus, hemodialysis subjects, geometric mean, read-out: T½ (converted)): 175 h
Vd [1, 7]: 293 L
AUC [1, 8]: 8890 ng·h/mL
Cmax [1, 8]: 686 ng/mL
AUC [1, 9]: 14800 ng·h/mL
Cmax [1, 9]: 1080 ng/mL
clearance ([1]; plasma, Cohort 5, 60 mg single IV bolus, hemodialysis subjects, geometric mean, read-out: CL (converted)): 24.2 mL/min
half-life ([1]; plasma, Cohort 5, 60 mg single IV bolus, hemodialysis subjects, geometric mean, read-out: T½ (converted)): 115 h
Vd [1, 9]: 232 L
half-life ([1]; plasma, across the dose range 5-60 mg single IV bolus, read-out: geometric mean terminal elimination half-life): 81.7 to 175 h
clearance ([1]; plasma, single IV bolus, hemodialysis subjects, read-out: Total clearance (converted)): ~33.3 mL/min
Adverse Event: Anemia ([2]; 5 mg dose cohort): 0 (0%)
Adverse Event: Congestive heart failure ([2]; 5 mg dose cohort): 0 (0%)
Adverse Event: Decreased ionized calcium ([2]; 5 mg dose cohort): 0 (0%)
Adverse Event: Gastro-esophageal reflux ([2]; 5 mg dose cohort): 1 (25%)
Adverse Event: Injection site pruritis ([2]; 5 mg dose cohort): 0 (0%)
Adverse Event: Paresthesias ([2]; 5 mg dose cohort): 1 (25%)
Adverse Event: Pneumonia ([2]; 5 mg dose cohort): 0 (0%)
Adverse Event: Toothache ([2]; 5 mg dose cohort): 0 (0%)
Number of subjects with ≧1 AE ([2]; 5 mg dose cohort): 1 (25%)
Adverse Event: Anemia ([2]; 10 mg dose cohort): 0 (0%)
Adverse Event: Congestive heart failure ([2]; 10 mg dose cohort): 0 (0%)
Adverse Event: Decreased ionized calcium ([2]; 10 mg dose cohort): 1 (33%)
Adverse Event: Gastro-esophageal reflux ([2]; 10 mg dose cohort): 0 (0%)
Adverse Event: Injection site pruritis ([2]; 10 mg dose cohort): 0 (0%)
Adverse Event: Paresthesias ([2]; 10 mg dose cohort): 0 (0%)
Adverse Event: Pneumonia ([2]; 10 mg dose cohort): 0 (0%)
Adverse Event: Toothache ([2]; 10 mg dose cohort): 0 (0%)
Number of subjects with ≧1 AE ([2]; 10 mg dose cohort): 1 (33%)
Adverse Event: Anemia ([2]; 20 mg dose cohort): 0 (0%)
Adverse Event: Congestive heart failure ([2]; 20 mg dose cohort): 0 (0%)
Adverse Event: Decreased ionized calcium ([2]; 20 mg dose cohort): 0 (0%)
Adverse Event: Gastro-esophageal reflux ([2]; 20 mg dose cohort): 0 (0%)
Adverse Event: Injection site pruritis ([2]; 20 mg dose cohort): 0 (0%)
Adverse Event: Paresthesias ([2]; 20 mg dose cohort): 0 (0%)
Adverse Event: Pneumonia ([2]; 20 mg dose cohort): 0 (0%)
Adverse Event: Toothache ([2]; 20 mg dose cohort): 1 (25%)
Number of subjects with ≧1 AE ([2]; 20 mg dose cohort): 1 (25%)
Adverse Event: Anemia ([2]; 40 mg dose cohort): 0 (0%)
Adverse Event: Congestive heart failure ([2]; 40 mg dose cohort): 0 (0%)
Adverse Event: Decreased ionized calcium ([2]; 40 mg dose cohort): 4 (100%)
Adverse Event: Gastro-esophageal reflux ([2]; 40 mg dose cohort): 0 (0%)
Adverse Event: Injection site pruritis ([2]; 40 mg dose cohort): 1 (25%)
Adverse Event: Paresthesias ([2]; 40 mg dose cohort): 1 (25%)
Adverse Event: Pneumonia ([2]; 40 mg dose cohort): 0 (0%)
Adverse Event: Toothache ([2]; 40 mg dose cohort): 0 (0%)
Number of subjects with ≧1 AE ([2]; 40 mg dose cohort): 4 (100%)
Adverse Event: Anemia ([2]; 60 mg dose cohort): 0 (0%)
Adverse Event: Congestive heart failure ([2]; 60 mg dose cohort): 0 (0%)
Adverse Event: Decreased ionized calcium ([2]; 60 mg dose cohort): 2 (50%)
Adverse Event: Gastro-esophageal reflux ([2]; 60 mg dose cohort): 0 (0%)
Adverse Event: Injection site pruritis ([2]; 60 mg dose cohort): 0 (0%)
Adverse Event: Paresthesias ([2]; 60 mg dose cohort): 0 (0%)
Adverse Event: Pneumonia ([2]; 60 mg dose cohort): 0 (0%)
Adverse Event: Toothache ([2]; 60 mg dose cohort): 0 (0%)
Number of subjects with ≧1 AE ([2]; 60 mg dose cohort): 2 (50%)
tolerability ([2]; single IV bolus 5-60 mg): very well-tolerated
reports of nausea, vomiting or diarrhea ([2]; single IV bolus 5-60 mg, 7 days after administration): no reports
corrected calcium level, lowest in any subject at any time during the study [3]: ≥ 7.5 mg/dL

C[C@@H](NCCCc1cccc(C(F)(F)F)c1)c1cccc2ccccc12 [cinacalcet]
PTH levels (in words) ([4]; 6 hours after the last dosing): reduced
PTH levels (in words) ([4]; 16 hours after the last dosing): increased
PTH levels (in words) ([4]; 48 hours after the last dosing): increased
